Several values for one entry are separate records, joined by “and”; a condition that tells them apart may be missing. Equal entries are not always repeated. Inconclusive results and toxic doses are left out.

This test relates to BALB/cJ mice, ADJ-PC-6 ip tumor, median survival T/C. Nature of the test: NCI In Vivo Anticancer Drug Screen. Data for tumor model ADJ-PC-6 (intraperitoneal) in BALB/cJ mice. The following applies: endpoint: median survival time, higher = longer survival. The method, then: The antitumor activity of compounds was measured in mice bearing transplantable tumors. Survival or tumor size were measured and the results are expressed as the measurement made in the treated group (T) divided by the measurement made in the vehicle treated control group (C). The tumor model used in this assay is ADJ-PC-6 (intraperitoneal) in BALB/cJ mice

Where [1] appears, read: dose: 10.0 mg/kg/injection, schedule: Q04DX003 (ip), vehicle: saline.
Where [2] appears, read: dose: 20.0 mg/kg/injection, schedule: Q04DX003 (ip), vehicle: saline.
[3] abbreviates: dose: 40.0 mg/kg/injection, schedule: Q04DX003 (ip), vehicle: saline.
The mark [4] stands for this setting: dose: 80.0 mg/kg/injection, schedule: Q04DX003 (ip), vehicle: saline.
[5] abbreviates: dose: 0.13 mg/kg/injection, schedule: Q04DX003 (ip), vehicle: saline.
[6] abbreviates: dose: 0.25 mg/kg/injection, schedule: Q04DX003 (ip), vehicle: saline.
Where [7] appears, read: dose: 0.5 mg/kg/injection, schedule: Q04DX003 (ip), vehicle: saline.

On to `COc1cc([C@@H]2c3cc4c(cc3[C@@H](OC3OC5COC(C)OC5C(O)C3O)[C@H]3COC(=O)[C@H]23)OCO4)cc(OC)c1O` (stereo partly specified), for which the T/C was 201 % of control (dose: 5.0 mg/kg/injection, schedule: Q04DX003 (ip), vehicle: saline); 224 % of control (dose: 6.25 mg/kg/injection, schedule: Q04DX003 (ip), vehicle: saline with Tween-80); 337 % of control under setting [1]; 247 % of control (dose: 12.5 mg/kg/injection, schedule: Q04DX003 (ip), vehicle: saline with Tween-80); 355 % of control under setting [2]; 337 % of control (dose: 25.0 mg/kg/injection, schedule: Q04DX003 (ip), vehicle: saline with Tween-80). Also, the T/C runs as follows: under setting [3], 355 % of control; (dose: 50.0 mg/kg/injection, schedule: Q04DX003 (ip), vehicle: saline with Tween-80) 337 % of control; under setting [4], 355 % of control; (dose: 100.0 mg/kg/injection, schedule: Q04DX003 (ip), vehicle: saline with Tween-80) 337 % of control.

Regarding `CNc1nc(N(C)C)nc(N(C)C)n1`, the T/C runs as follows: (dose: 19.4 mg/kg/injection, schedule: Q01DX014 (ip), vehicle: saline) 101 % of control; (dose: 19.4 mg/kg/injection, schedule: Q01DX014 (sc), vehicle: saline) 100 % of control and 105 % of control; (dose: 32.4 mg/kg/injection, schedule: Q01DX014 (sc), vehicle: saline) 152 % of control; (dose: 54.0 mg/kg/injection, schedule: Q01DX014 (ip), vehicle: saline) 150 % of control; (dose: 54.0 mg/kg/injection, schedule: Q01DX014 (sc), vehicle: saline) 208 % of control; (dose: 90.0 mg/kg/injection, schedule: Q01DX014 (ip), vehicle: saline) 181 % of control and 297 % of control. Also, the T/C runs as follows: (dose: 90.0 mg/kg/injection, schedule: Q01DX014 (sc), vehicle: saline) 213 % of control and 243 % of control; (dose: 150.0 mg/kg/injection, schedule: Q01DX014 (ip), vehicle: saline) 45 % of control.

Regarding `COc1cc2c(c(OC)c1OC)-c1ccc(OC)c(=O)cc1[C@@H](NC(C)=O)CC2`, the T/C was 99 % of control (dose: 0.05 mg/kg/injection, schedule: Q01DX009 (ip), vehicle: Klucel (hydroxypropylcellulose) (HPC)); 88 % of control (dose: 0.1 mg/kg/injection, schedule: Q01DX009 (ip), vehicle: Klucel (hydroxypropylcellulose) (HPC)); 102 % of control (dose: 0.2 mg/kg/injection, schedule: Q01DX009 (ip), vehicle: Klucel (hydroxypropylcellulose) (HPC)); 108 % of control (dose: 0.4 mg/kg/injection, schedule: Q01DX009 (ip), vehicle: Klucel (hydroxypropylcellulose) (HPC)).

`CC[C@]1(O)C[C@H]2CN(CCc3c([nH]c4ccccc34)[C@@](C(=O)OC)(c3cc4c(cc3OC)N(C=O)[C@H]3[C@@](O)(C(=O)OC)[C@H](OC(C)=O)[C@]5(CC)C=CCN6CC[C@]43[C@@H]65)C2)C1`: the T/C by setting is: under setting [5], 99 % of control and 110 % of control; under setting [6], 101 % of control and 110 % of control; under setting [7], 97 % of control and 102 % of control; (dose: 1.0 mg/kg/injection, schedule: Q04DX003 (ip), vehicle: saline) 106 % of control and 121 % of control; (dose: 2.0 mg/kg/injection, schedule: Q04DX003 (ip), vehicle: saline) 122 % of control.

On to `O=P1(N(CCCl)CCCl)NCCCO1` (stereo unspecified), for which the T/C was 99 % of control under setting [1]; 88 % of control (dose: 10.0 mg/kg/injection, schedule: Q04DX003 (iv), vehicle: saline); 108 % of control (dose: 19.4 mg/kg/injection, schedule: Q04DX003 (ip), vehicle: saline); 109 % of control and 110 % of control under setting [2]; 95 % of control (dose: 20.0 mg/kg/injection, schedule: Q04DX003 (iv), vehicle: saline); 166 % of control (dose: 32.4 mg/kg/injection, schedule: Q04DX003 (ip), vehicle: saline). Also, the T/C reads like this: under setting [3], 173 % of control and 178 % of control; (dose: 54.0 mg/kg/injection, schedule: Q04DX003 (ip), vehicle: saline) 189 % of control; under setting [4], 168 % of control and 335 % of control; (dose: 80.0 mg/kg/injection, schedule: Q04DX003 (iv), vehicle: saline) 194 % of control; (dose: 90.0 mg/kg/injection, schedule: Q04DX003 (ip), vehicle: saline) 267 % of control; (dose: 150.0 mg/kg/injection, schedule: Q04DX003 (ip), vehicle: saline) 340 % of control. The T/C is, setting by setting: (dose: 160.0 mg/kg/injection, schedule: Q04DX003 (ip), vehicle: saline) 194 % of control and 335 % of control; (dose: 160.0 mg/kg/injection, schedule: Q04DX003 (iv), vehicle: saline) 194 % of control.

Turning to `Cc1c(N)nc([C@H](CC(N)=O)NC[C@H](N)C(N)=O)nc1C(=O)N[C@H](C(=O)N[C@H](C)[C@@H](O)[C@H](C)C(=O)N[C@H](C(=O)NCCc1nc(-c2nc(C(=O)NCCC[S+](C)C)cs2)cs1)[C@@H](C)O)C(OC1OC(CO)C(O)C(O)C1OC1OC(CO)C(O)C(OC(N)=O)C1O)c1cnc[nH]1` (stereo partly specified), the T/C is 101 % of control and 108 % of control (dose: 3.75 mg/kg/injection, schedule: Q04DX003 (ip), vehicle: saline); 89 % of control and 116 % of control (dose: 7.5 mg/kg/injection, schedule: Q04DX003 (ip), vehicle: saline); 102 % of control (dose: 15.0 mg/kg/injection, schedule: Q04DX003 (ip), vehicle: saline); 105 % of control and 112 % of control (dose: 30.0 mg/kg/injection, schedule: Q04DX003 (ip), vehicle: saline); 106 % of control and 116 % of control (dose: 60.0 mg/kg/injection, schedule: Q04DX003 (ip), vehicle: saline).

As for `O=C(O)C1(C(=O)O)CCC1.[NH2-].[NH2-].[Pt+2]`, the T/C runs as follows: (dose: 10.8 mg/kg/injection, schedule: Q01DX009 (ip), vehicle: water) 159 % of control; (dose: 11.7 mg/kg/injection, schedule: Q04DX003 (ip), vehicle: water) 106 % of control; (dose: 12.5 mg/kg/injection, schedule: Q04DX003 (ip), vehicle: saline) 108 % of control; (dose: 18.0 mg/kg/injection, schedule: Q01DX009 (ip), vehicle: water) 175 % of control; (dose: 19.4 mg/kg/injection, schedule: Q04DX003 (ip), vehicle: water) 106 % of control; (dose: 25.0 mg/kg/injection, schedule: Q04DX003 (ip), vehicle: saline) 114 % of control. Besides, the T/C is 164 % of control (dose: 32.4 mg/kg/injection, schedule: Q04DX003 (ip), vehicle: water); 178 % of control (dose: 50.0 mg/kg/injection, schedule: Q04DX003 (ip), vehicle: saline); 170 % of control and 215 % of control (dose: 54.0 mg/kg/injection, schedule: Q04DX003 (ip), vehicle: water); 103 % of control (dose: 90.0 mg/kg/injection, schedule: Q04DX003 (ip), vehicle: water); 217 % of control (dose: 100.0 mg/kg/injection, schedule: Q04DX003 (ip), vehicle: saline).

As for `CC(=O)[C@]1(O)Cc2c(O)c3c(c(O)c2[C@@H](OC2CC(N)C(O)C(C)O2)C1)C(=O)c1c(O)cccc1C3=O` (stereo partly specified), the T/C is, setting by setting: under setting [5], 164 % of control; under setting [6], 168 % of control; under setting [7], 178 % of control.

`CCN(CC)CCOC(=O)c1ccc(NCN2C(=O)CCC2=O)cc1`: the T/C by setting is: (dose: 10.0 mg/kg/injection, schedule: Q01DX009 (ip), vehicle: water) 110 % of control; (dose: 20.0 mg/kg/injection, schedule: Q01DX009 (ip), vehicle: water) 96 % of control; (dose: 40.0 mg/kg/injection, schedule: Q01DX009 (ip), vehicle: water) 98 % of control; (dose: 80.0 mg/kg/injection, schedule: Q01DX009 (ip), vehicle: water) 105 % of control; (dose: 160.0 mg/kg/injection, schedule: Q01DX009 (ip), vehicle: water) 92 % of control.

Take `NC(C/[N+]([O-])=N/O)C(=O)O` (stereo unspecified): the T/C reads like this: (dose: 50.0 mg/kg/injection, schedule: Q04DX003 (ip), vehicle: alkali diluted with saline) 108 % of control; (dose: 100.0 mg/kg/injection, schedule: Q04DX003 (ip), vehicle: alkali diluted with saline) 115 % of control; (dose: 250.0 mg/kg/injection, schedule: Q04DX003 (ip), vehicle: alkali diluted with saline) 153 % of control; (dose: 400.0 mg/kg/injection, schedule: Q04DX003 (ip), vehicle: alkali diluted with saline) 171 % of control; (dose: 500.0 mg/kg/injection, schedule: Q04DX003 (ip), vehicle: alkali diluted with saline) 188 % of control; (dose: 800.0 mg/kg/injection, schedule: Q04DX003 (ip), vehicle: alkali diluted with saline) 167 % of control.
